Earlier results, collected in patent US20210236687A1, “CANNABINOID-BASED ORAL HEMOSTATIC COMPOSITIONS” (Pac-Dent, Inc., priority 2020, published 2021).

Experiments:
[1] = system: MCP-2 chemokine and other proinflammatory cytokines; conditions: Petrosino et al. 2018; inhibition of production of MCP-2 chemokine and other proinflammatory cytokines
[2] = in vivo
[3] = system: methicillin-resistant Staphylococcus aureus strains (MRSA); conditions: European research
[4] = in vivo; remark: listed apart in the source
[5] = Evans 1991

CCCCCc1cc(O)c2c(c1)OC(C)(CCC=C(C)C)C=C2 (stereo not shown) [CBC, cannabichromene]
anti-inflammatory properties in an in vitro model of allergic contact dermatitis [1]: some anti-inflammatory benefits
pain and inflammation associated with collagen-induced osteoarthritis [2]: block pain and inflammation

C=C(C)[C@@H]1CCC(C)=C[C@H]1c1c(O)cc(CCCCC)cc1O [CBD, cannabidiol, reference compound]
anti-inflammatory properties in an in vitro model of allergic contact dermatitis [1]: potent anti-inflammatory properties

C=C(C)[C@@H]1CCC(C)=C[C@H]1c1c(O)cc(CCC)cc1O [CBDV, cannabidivarin]
anti-inflammatory properties in an in vitro model of allergic contact dermatitis [1]: some anti-inflammatory benefits

CCCCCc1cc(O)c(C/C=C(\C)CCC=C(C)C)c(O)c1 [CBG, cannabigerol]
antibacterial effect against MRSA strains resistant to several classes of drugs [3]: effective antibacterial agent
anti-inflammatory properties in an in vitro model of allergic contact dermatitis [1]: some anti-inflammatory benefits
inflammation characteristics in animal experiments [4]: effective in decreasing the inflammation characteristics

CCCCCc1cc(O)c2c(c1)OC(C)(C)[C@@H]1CCC(C)=C[C@@H]21 [THC, tetrahydrocannabinol]
anti-inflammatory potency relative to aspirin [5]: twenty times
anti-inflammatory potency relative to hydrocortisone [5]: twice
cyclooxygenase (COX) inhibition (cyclooxygenase (COX)): without any cyclooxygenase (COX) inhibition
